Results: US8835571B2, “Fatty acid derivative-polymer conjugate” (Sucampo AG, priority 2012, dated 2014)

Assay: incorporation of unoprostone isopropyl into MPEG-hexPLA polymer micelles
Format: physicochemical
Protocol: The incorporation studies were carried out by a standard formulation protocol. Briefly, a defined amount of the provided unoprostone isopropyl ethanol solution was taken and the ethanol rapidly evaporated, the remaining compound was re-dissolved together with the MPEG-hexPLA excipient in acetone and added dropwise under sonication into water, followed by evaporation of the organic solvent and equilibration of the micelle solution overnight.
As it can be seen, for loadings up to 500 mg unoprostone isopropyl per gram MPEGhexPLA, loading efficiencies higher than 80% could be obtained by this simple procedure (FIG. 1), corresponding to 2.22 mg drug per mL formulation (FIG. 2). […] The latter formulations with a minimum of drug loss in the formulation procedure gave transparent formulations.

obtained drug concentration in formulation (loading 500 mg per gram MPEGhexPLA (FIG. 2)): 2.22 mg drug per mL formulation
Incorporation efficiencies (loadings up to 300 mg/g): > 90%
obtained drug concentration in formulation (loadings up to 300 mg/g): ≤ 1.67 mg/mL
loading efficiencies (loadings up to 500 mg unoprostone isopropyl per gram MPEGhexPLA (FIG. 1)): higher than 80%
Compound: CCCCCCCC(=O)CC[C@@H]1[C@@H](C/C=C\CCCC(=O)OC(C)C)[C@@H](O)C[C@H]1O [unoprostone isopropyl, (+)-isopropyl (Z)-7-[(1R,2R,3R,5S)-3,5-dihydroxy-2-(3-oxodecyl)cyclopentyl]hept-5-enoate]
